Test results as given in article PMC6642116, “Structural and functional analyses of hepatitis B virus X protein BH3-like domain and Bcl-xL interaction” (Nature Communications, 2019).

Columns and labels:
Assay type in all cases: cell-based
[1] = system: HBV in HepG2.2.15 cells; experiment: Inhibition of HBV in HepG2.2.15 cells by PEP-1 delivered peptides; conditions: for HBV DNA: HepG2.2.15 culture medium, peptide via PEP-1, 48 h; for HBsAg in culture medium: HepG2.2.15, peptide via PEP-1, 48 h
Experimental: (§1) Fig. 6 The HBx-aa118–127 peptide, but not ABT-263, inhibits HBV replication and transcription in HepG2.2.15 cells. a HepG2.2.15 cells were treated with 125, 250, 500, and 1000 nM of ABT-263 for 2 days. Cytoplasmic HBV viral particles were isolated and the viral DNA replication intermediates were quantified (Methods). The results represent the fold change of the replicative intermediates in HepG2.2.15 cells from the indicated treatments, compared with those without treatment. b HepG2.2.15 cells were treated with the indicated concentrations of ABT-263 for 2 days. The lysate was analyzed by immunoblotting using antibodies to caspase-3 (CASP3) and GAPDH (glyceraldehyde 3-phosphate dehydrogenase). c, d The HBx-aa113–135, HBx-aa118–127, or the control peptides were delivered into HepG2.2.15 cells using PEP-1 nanoparticles (Methods). The levels of HBV DNA (c) and the levels of HBV S-antigen (HBsAg) expression (d) in culture medium collected from HepG2.2.15 cells were measured (Methods). The results are shown as fold change compared to that of the control peptide. e–g HepG2-NTCP cells were transfected with HBx118–127 peptide with concentration of […], and 50 μg/ml or unrelated control peptide during HBV infection (multiplicity of infection (MOI) = 200), respectively. e HBV e-antigen (HBeAg), f HBV DNA, and g cell viability were measured at day 8 after HBV infection. Data shown represent mean ± SD. Significance is indicated on the top. Not significant (ns): *P < 0.05, **P < 0.01; two-tailed unpaired t tests (n = 3 biologically independent samples). Source data are provided as a Source Data file
To evaluate the potential inhibitory effects of peptides on HBV replication and transcription in HepG2.2.15 cells, HepG2.2.15 cells were pre-seeded 24 h before peptides treatment. HBx-aa113–135, HBx-aa118–127, or control peptide was transfected through pep-1 carriers and incubated for additional 48 h without the removal of peptides. The culture media of HepG2.2.15 cells were then harvested for analysis.
(§2) The levels of HBsAg, HBeAg, and HBcAg expression were measured by chemiluminescence, using Commercial Assay Kit (Wantai, Beijing, China). Northern blot analysis of HBV RNA, Southern blot analysis of HBV DNA, and real-time PCR quantification of HBV DNA are described in the Supplementary Methods.

[2] = system: HepG2-NTCP cells; experiment: Cell viability (CCK8 assay) of HBV-infected HepG2-NTCP cells; parameters: Cell viability: unit not given here; conditions: CCK8, unrelated control peptide, day 8
Experimental: as §1
HBx-aa118-127 peptide treatment.
obvious cytotoxicity at concentrations between 12.5-200 µg/mL (Fig. 6g). Taken together, […]

[3] = system: HBV replication from pHBV1.3-Xnull replicon in HepG2 cells; experiment: HBV production rescue assay, PEP-1 delivered peptides; conditions: HepG2 + pHBV1.3-Xnull, peptide/PEP-1, 48 h
Text: Fig. 3 The HBx-BH3-like domain is critical for HBV production in HepG2 cells. a–e C-terminal biotinylated HBx-aa113–135 peptides (both wild-type (WT) and the W120A/L123A double mutant) were delivered into HepG2 cells transfected with pHBV1.3-Xnull using PEP-1 nanoparticles (Methods) and analyzed by streptavidin-FITC (fluorescein isothiocyanate) for transfection efficiency (a). Scale bar is 50 μm. An unrelated 23-aa peptide was used as a control (Control). The intracellular expression levels of HBV core antigen (HBcAg (b) and the levels of HBV e-antigen (HBeAg) (c), HBV S-antigen (HBsAg) (d), and HBV DNA (e) in the culture medium collected from HepG2 cells were measured (Methods). The results are shown as fold change to the WT HBx-aa113–135 peptide (WT). f–i) HepG2 cells were co-transfected with pHBV1.3-Xnull and pTT22m-HBx-WT (WT), pHBV1.3-Xnull and pTT22m-HBx(W120A/L123A), or pHBV1.3-Xnull and the pTT22m vector control (Control). Intracellular expression levels of HBcAg (f) and the levels of HBeAg (g), HBsAg (h), and HBV DNA (i) in the culture medium from HepG2 cells were measured similarly. The results are shown as fold change to the combination of pHBV1.3-Xnull and pTT22m-HBx-WT (WT). Data shown represent mean ± SD. Significance is indicated on the top. **P < 0.01, ***P < 0.001, ****P < 0.0001; two-tailed unpaired t tests (n = 3 biologically independent samples). Source data are provided as a Source Data file
HepG2 cells were grown in Dulbecco’s modified Eagle’s medium (DMEM) with 10% Gibco fetal bovine serum. C-terminal biotinylated-labeled HBx peptides were transfected into HepG2 cells by pep-1[16], a peptide carrier for the delivery of biologically active proteins into mammalian cells. HBx peptides and pep-1 were firstly dissolved in DMEM to 1 mg/ml, then adjusted to 500 µl DMEM to a final concentration of 100 µg/ml, and incubated at 37 °C for 30 min in the tube. The incubated peptide mixture was added into pre-seeded HepG2 cells in a 24-well plate and incubated for another 30 min, and then washed five times by phosphate-buffered saline (PBS) to remove the free peptides. The transfected C-terminal biotinylated HBx peptides were detected by using streptavidin-FITC (fluorescein isothiocyanate) equipment (Thermo Fisher Scientific) following the standard immunostaining methods.
Transfection of plasmids into HepG2 cells was carried out using X-tremeGENE HP DNA Transfection Reagent (Roche), following the manufacturer’s protocol. A transfection efficiency of 20–30% could be achieved. Cells were pre-seeded 24 h before transfections. pHBV1.3-HBx-null plasmid was transfected into HepG2 cells for 6 h, then HBx-aa113–135, HBx-aa113–135-(W120A, L123A), or control peptide was transfected by pep-1 carrier and incubated for additional 48 h without the removal of peptides. The culture media of the HepG2 cells were harvest for analysis.
as §2

Which “HBV DNA” value ([1]; replicate 1) does the source give for “SSTTSTGPCKTCTTPAQGTSMFP-K-biotin [Control, equal-length unrelated control biotin-labeled peptide]” here?
The value was 0.944 fold-change to control.

And the “HBV DNA” value ([1]; replicate 2)?
The value was 1.019 fold-change to control.

What about the “HBV DNA” value ([1]; replicate 3) of the same substance?
The value was 1.037 fold-change to control.

And the “HBsAg in culture medium” value ([1]; replicate 1)?
Its value is 1.097 fold-change to control.

What about the “HBsAg in culture medium” value ([1]; replicate 2) of the same substance?
The value was 0.872 fold-change to control.

What about the “HBsAg in culture medium” value ([1]; replicate 3) of the same substance?
The value was 1.030 fold-change to control.

And the Cell viability ([2]; replicate 1)?
The Cell viability was 102.557.

What about the Cell viability ([2]; replicate 2) of the same substance?
The Cell viability was 97.209.

What about the Cell viability ([2]; replicate 3) of the same substance?
The Cell viability was 100.234.

And the HBcAg in cells ([3]; replicate 1)?
The HBcAg in cells was 0.472 fold-change to WT.

What about the “HBeAg in culture medium” value ([3]; replicate 1) of the same substance?
Its value is 0.329 fold-change to WT.

And the “HBsAg in culture medium” value ([3]; replicate 1)?
The value was 0.215 fold-change to WT.

And the “Secreted HBV DNA” value ([3]; replicate 1)?
The value was 990600 Copies/mL.

What about the HBcAg in cells ([3]; replicate 2) of the same substance?
The HBcAg in cells was 0.663 fold-change to WT.

And the “HBeAg in culture medium” value ([3]; replicate 2)?
The value was 0.389 fold-change to WT.

And the “HBsAg in culture medium” value ([3]; replicate 2)?
Its value is 0.227 fold-change to WT.

And the “Secreted HBV DNA” value ([3]; replicate 2)?
Its value is 564700 Copies/mL.

And the HBcAg in cells ([3]; replicate 3)?
The HBcAg in cells was 0.512 fold-change to WT.

And the “HBeAg in culture medium” value ([3]; replicate 3)?
Its value is 0.344 fold-change to WT.

What about the “HBsAg in culture medium” value ([3]; replicate 3) of the same substance?
Its value is 0.207 fold-change to WT.

And the “Secreted HBV DNA” value ([3]; replicate 3)?
Its value is 887700 Copies/mL.
